# Active and inactive are the calls of the source.
# Experiments:
# NADPH oxidase 1 = NADPH oxidase 1 (Homo sapiens, UniProt Q9Y5S8); type: functional, cell-based;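 further: Cell-based assay with luminescence read-out, IC50 derived from inhibitor dose-response curves; intracellular ROS from endogenous NOX1 in intact HT29 colon cancer cells; potency of inhibitors that lower the ROS luminescence signal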
# Estrogen receptor beta [1] = molecular target: T1, Estrogen receptor beta (Homo sapiens, UniProt Q92731);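 further: recombinant ER-beta bound to coactivator SRC1 peptide in presence of estradiol agonist; inhibitors block coactivator peptide binding and lower the FRET signal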
# T1 sequence (Q92731 whole entry): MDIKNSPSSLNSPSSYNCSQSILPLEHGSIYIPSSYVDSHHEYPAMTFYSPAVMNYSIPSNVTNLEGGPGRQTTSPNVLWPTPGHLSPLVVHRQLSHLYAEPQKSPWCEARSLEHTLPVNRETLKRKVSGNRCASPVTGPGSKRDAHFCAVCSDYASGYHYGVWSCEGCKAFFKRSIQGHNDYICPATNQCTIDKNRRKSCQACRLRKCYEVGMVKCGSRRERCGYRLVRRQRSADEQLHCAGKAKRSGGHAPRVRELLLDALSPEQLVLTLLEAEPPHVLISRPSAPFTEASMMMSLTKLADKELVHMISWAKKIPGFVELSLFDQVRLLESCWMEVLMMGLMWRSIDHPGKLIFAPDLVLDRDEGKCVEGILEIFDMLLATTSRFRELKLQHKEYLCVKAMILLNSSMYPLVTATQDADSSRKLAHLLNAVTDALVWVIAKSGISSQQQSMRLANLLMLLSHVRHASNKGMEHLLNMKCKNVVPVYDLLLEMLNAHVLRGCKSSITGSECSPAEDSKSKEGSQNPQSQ
# [2] = molecular target: T2, Replicative DNA helicase DnaB (Mycobacterium tuberculosis, UniProt P9WMR3); experiment: DnaB intein splicing inhibitors, dose response, biochemical, cell-free fluorescence (AID 449749); type: functional
# T2 sequence (P9WMR3 whole entry): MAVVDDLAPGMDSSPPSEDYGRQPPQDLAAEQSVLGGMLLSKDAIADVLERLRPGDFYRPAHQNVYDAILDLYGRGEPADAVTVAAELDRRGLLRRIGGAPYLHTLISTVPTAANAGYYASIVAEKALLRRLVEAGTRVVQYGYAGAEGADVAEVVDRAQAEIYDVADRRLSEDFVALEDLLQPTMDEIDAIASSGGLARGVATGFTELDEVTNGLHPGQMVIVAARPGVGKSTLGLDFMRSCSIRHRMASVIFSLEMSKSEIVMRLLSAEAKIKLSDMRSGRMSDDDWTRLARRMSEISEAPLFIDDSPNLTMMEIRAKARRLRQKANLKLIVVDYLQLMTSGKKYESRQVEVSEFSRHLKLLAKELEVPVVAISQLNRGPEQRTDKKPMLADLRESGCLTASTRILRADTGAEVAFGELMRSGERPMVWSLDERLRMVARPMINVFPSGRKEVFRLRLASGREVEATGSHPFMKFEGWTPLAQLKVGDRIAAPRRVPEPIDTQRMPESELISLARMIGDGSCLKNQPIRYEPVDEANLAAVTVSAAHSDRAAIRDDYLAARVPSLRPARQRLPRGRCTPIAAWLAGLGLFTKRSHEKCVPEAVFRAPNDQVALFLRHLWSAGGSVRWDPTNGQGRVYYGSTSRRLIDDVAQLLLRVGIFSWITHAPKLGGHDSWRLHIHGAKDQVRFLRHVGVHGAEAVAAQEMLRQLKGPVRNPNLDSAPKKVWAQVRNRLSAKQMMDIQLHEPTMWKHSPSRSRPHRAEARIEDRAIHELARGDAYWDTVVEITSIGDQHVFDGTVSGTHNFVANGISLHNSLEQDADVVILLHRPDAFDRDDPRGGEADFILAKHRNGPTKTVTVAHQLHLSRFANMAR
# Estrogen receptor beta [3] = molecular target: T1, Estrogen receptor beta; experiment: ERβ–SRC-3 coactivator interaction inhibitors, confirmation, orthogonal assay, biochemical, ELISA, streptavidin-HRP readout (AID 1060)
# Protein RecA = molecular target: T3, Protein RecA (Mycobacterium tuberculosis, UniProt P9WHJ3); experiment: Fluorescence Cell-Free Homogeneous Dose Retest to Identify Inhibitors of RecA-Intein Splicing Activity. [Related pubchem assays (depositor defined):AID2097, AID2223, AID489010, AID492950]; type: functional
# T3 sequence (P9WHJ3 whole entry): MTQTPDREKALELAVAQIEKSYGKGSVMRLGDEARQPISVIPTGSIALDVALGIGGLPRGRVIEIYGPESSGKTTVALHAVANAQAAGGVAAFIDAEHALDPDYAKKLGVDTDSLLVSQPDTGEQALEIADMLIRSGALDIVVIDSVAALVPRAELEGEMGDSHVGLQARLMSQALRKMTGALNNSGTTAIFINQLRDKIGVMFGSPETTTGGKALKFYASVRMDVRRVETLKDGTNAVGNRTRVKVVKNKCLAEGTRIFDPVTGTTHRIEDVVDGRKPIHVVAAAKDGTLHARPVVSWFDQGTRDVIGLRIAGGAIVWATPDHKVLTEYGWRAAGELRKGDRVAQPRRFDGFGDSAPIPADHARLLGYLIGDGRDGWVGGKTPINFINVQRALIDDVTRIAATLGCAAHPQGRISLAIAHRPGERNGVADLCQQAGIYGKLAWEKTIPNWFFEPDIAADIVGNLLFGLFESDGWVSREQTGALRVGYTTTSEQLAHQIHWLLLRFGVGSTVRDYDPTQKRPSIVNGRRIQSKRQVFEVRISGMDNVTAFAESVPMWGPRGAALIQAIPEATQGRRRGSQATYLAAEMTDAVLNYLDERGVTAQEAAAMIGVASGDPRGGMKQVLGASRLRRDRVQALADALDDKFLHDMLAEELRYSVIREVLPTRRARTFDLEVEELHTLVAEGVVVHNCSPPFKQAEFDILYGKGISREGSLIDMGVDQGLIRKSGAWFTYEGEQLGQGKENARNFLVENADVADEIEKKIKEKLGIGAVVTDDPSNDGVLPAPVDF
# Sequence of NADPH oxidase 1 (Q9Y5S8 whole entry): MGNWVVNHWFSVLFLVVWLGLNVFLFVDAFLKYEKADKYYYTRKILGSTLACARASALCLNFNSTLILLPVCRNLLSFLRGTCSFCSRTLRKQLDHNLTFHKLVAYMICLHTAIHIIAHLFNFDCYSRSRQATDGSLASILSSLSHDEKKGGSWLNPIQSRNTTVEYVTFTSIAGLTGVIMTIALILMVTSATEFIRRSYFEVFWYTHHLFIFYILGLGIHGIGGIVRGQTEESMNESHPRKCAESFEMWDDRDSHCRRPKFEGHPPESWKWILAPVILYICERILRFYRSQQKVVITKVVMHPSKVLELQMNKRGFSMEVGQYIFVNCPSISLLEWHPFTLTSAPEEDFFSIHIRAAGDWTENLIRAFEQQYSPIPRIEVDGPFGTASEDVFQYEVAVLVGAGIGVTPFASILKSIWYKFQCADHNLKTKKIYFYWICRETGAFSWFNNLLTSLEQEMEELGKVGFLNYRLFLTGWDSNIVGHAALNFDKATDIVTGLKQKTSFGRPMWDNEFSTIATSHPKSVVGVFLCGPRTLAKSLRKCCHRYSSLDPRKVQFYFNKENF
SMILES,IC50 (NADPH oxidase 1),IC50 (Estrogen receptor beta [1]),AC50 [2],IC50 (Estrogen receptor beta [3]),EC50 (Protein RecA)
c1ccc(-c2nc(-c3ccccc3)c(-c3ccccc3)o2)cc1,> 17 µM (not active),–,–,–,–
CC1(N2CCOCC2)CC2(O)C(=[N+]1[O-])CCc1nonc12 (stereo not given),–,12 µM (active),> 380 µM (inactive),0.256 µM (not active),11.9 µM (active)
